Results from patent EP1379634B1 (THE UNIVERSITY OF GEORGIA RESEARCH FOUNDATION, INC., priority 2001, dated 2002).
Starred links: 1 amine or outer side, 2 acyl side, 3 side chain; linkers in the order of their positions; H or OH if unused. Residues, ends and D or L forms follow the SMILES beside them. *: point of attachment. AFC = O=c1cc(C(F)(F)F)c2ccc(N*)cc2o1; Suc = O=C(CCC(=O)[*:2])[*:1]

System: T. solium purified cysteine protease
Assay: Human IgG degradation, western blot (Step IV)
Format: biochemical, Taenia solium
Conditions: overnight, 37°C, 18 hrs
Description: To conduct this assessment, a western blot was performed. IgG digestion was detected by incubating 20 ul of T. solium purified enzyme or T. […] extract with 1 ug of human IgG (Sigma, St. Louis) in a final volume of 100 ul of assay buffer. Exogenous thiol activation was assessed by incubating the assay in the presence or absence of cysteine. The catalytic class of the IgG protease was determined by pre-incubating the following proteinase inhibitors at their active concentrations, with the enzyme: E 64 (10^-6 M , cysteine proteinases), phenylmethylsulfonyl fluoride (PMSF) (10^-3 M, serine proteinases), pepstatin A (10^-6M, aspartic proteinases), and 1,10 phenanthroline (10^-3 M, metalloproteinases), and the vehicle, Mu-Leu-Tyr-AFC (10^-3 M). After addition of IgG, the assay was incubated overnight (37°C, 18 hrs). Subsequently, 100 ul of the mixture was boiled in sodium dodecyl sulfate polyacrylamide gel electrophoresis (SDS-PAGE) sample buffer with 2% 2-mercaptoethanol, separated by 12.5% SDS-PAGE, and blotted onto a polyvinylidene difluoride membrane. Tris buffered saline containing 0.1 % bovine serum albumin and 0.05% Tween 20 (TBS-BSA) was used to block nonspecific binding. […]

`CC(C)CC(NC(=O)C1OC1C(=O)O)C(=O)NCCCCNC(=N)N` (centres unmarked) [E64, reference compound] was tested, and the “inhibition of cleavage of human IgG” value was “Inhibition was noted”.

With `CC(C)C[C@H](NC(=O)CCC(=O)O)C(=O)N[C@@H](Cc1ccc(O)cc1)C(=O)Nc1ccc2c(C(F)(F)F)cc(=O)oc2c1` [suc-Leu-Tyr-AFC] (Suc-Leu-Tyr-{AFC}) the “inhibition of cleavage of human IgG” value was “ability to inhibit”.
